Measured values reported in patent publication US12227498B2, “Heterocyclic amine derivative and pharmaceutical composition comprising same” (Daewoong Pharmaceutical Co., Ltd., priority 2018, dated 2025).
pIC50: −log10 of the molar value.

What was measured:
BTK = target: T1, BTK (Homo sapiens, UniProt Q06187); test: Inhibitory activity against BTK, ADP-Glo + BTK Kinase enzyme system kit (Promega); type: biochemical; details: BTK enzyme 1 ng/μl; ATP 10 µM; 15 min preincubation at room temperature; 1 hour at 30° C.; luminescence; duplicate
T1 construct: purchased Promega Corporation
Protocol: (§1) Inhibitory activities against BTK and ITK were measured for the compounds prepared in the above Examples as follows.
The inhibitory activities against BTK were evaluated using ‘ADP-Glo™+BTK Kinase enzyme system’ kit (Promega Corporation). […] 5 μl of substrate and 5 μl of ATP prepared so as to have a final concentration of 10 µM were added to the plate on which reactions were completed, and then allowed to react at 30° C. for 1 hour. All wells of the plate were treated with 25 μl of ADP-Glo™ reagent and allowed to react at 30° C. for 40 minutes. After that, all wells were treated with 50 μl of kinase detection buffer, and then reacted at 30° C. for 30 minutes under light shielding conditions. For the plate on which all reactions were completed, luminescence was measured and the results were calculated. Evaluation was carried out in duplicate, and negative control and positive control were calculated depending on whether or not the enzyme was added without treatment of the compound. The IC50 was calculated based on the calculated values.

ITK = target: T2, ITK (Homo sapiens, UniProt Q08881); test: Inhibitory activity against ITK, ADP-Glo + ITK Kinase enzyme system kit (Promega); type: biochemical; details: ITK enzyme 0.4 ng/μl; 15 min preincubation at room temperature; 1 hour at 30° C.; luminescence; duplicate
T2 construct: purchased Promega Corporation
T2 sequence (Q08881 1-620): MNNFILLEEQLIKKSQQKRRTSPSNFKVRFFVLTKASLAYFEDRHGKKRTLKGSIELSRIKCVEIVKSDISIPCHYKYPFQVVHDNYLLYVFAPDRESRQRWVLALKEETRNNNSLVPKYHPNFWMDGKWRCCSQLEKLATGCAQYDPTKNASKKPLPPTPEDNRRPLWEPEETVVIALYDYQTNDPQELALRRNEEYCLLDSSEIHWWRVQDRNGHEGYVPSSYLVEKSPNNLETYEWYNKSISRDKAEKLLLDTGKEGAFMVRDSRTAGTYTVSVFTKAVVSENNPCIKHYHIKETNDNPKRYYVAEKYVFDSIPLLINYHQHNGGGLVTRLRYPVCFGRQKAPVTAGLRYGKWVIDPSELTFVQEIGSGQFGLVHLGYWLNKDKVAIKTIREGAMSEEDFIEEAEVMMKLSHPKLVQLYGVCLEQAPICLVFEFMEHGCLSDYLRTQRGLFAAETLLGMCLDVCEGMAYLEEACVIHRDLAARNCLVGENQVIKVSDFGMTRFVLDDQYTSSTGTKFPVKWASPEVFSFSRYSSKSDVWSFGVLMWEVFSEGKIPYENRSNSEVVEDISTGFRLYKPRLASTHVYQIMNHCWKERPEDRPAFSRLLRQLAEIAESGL
Protocol: as §1
The inhibitory activity against ITK was evaluated using ‘ADP-Glo™+ITK Kinase enzyme system’ kit (Promega Corporation). […] To the plate on which reactions were completed, 5 μl of substrate and 5 μl of ATP prepared so as to have a final concentration of […] were added and then allowed to react at 30° C. for 1 hour. All wells of the plate were treated with 25 μl of ADP-Glo™ reagent and then allowed to react at 30° C. for 40 minutes. After that, all wells were treated with 50 μl of kinase detection buffer, and then allowed to react at 30° C. for 30 minutes under light shielding conditions. For the plate on which all reactions were completed, luminescence was measured and the results were calculated. Evaluation was carried out in duplicate, and negative control and positive control were calculated depending on whether or not the enzyme was added without treatment of the compound. The IC50 was calculated based on the calculated values.

T1 sequence (Q06187 whole entry): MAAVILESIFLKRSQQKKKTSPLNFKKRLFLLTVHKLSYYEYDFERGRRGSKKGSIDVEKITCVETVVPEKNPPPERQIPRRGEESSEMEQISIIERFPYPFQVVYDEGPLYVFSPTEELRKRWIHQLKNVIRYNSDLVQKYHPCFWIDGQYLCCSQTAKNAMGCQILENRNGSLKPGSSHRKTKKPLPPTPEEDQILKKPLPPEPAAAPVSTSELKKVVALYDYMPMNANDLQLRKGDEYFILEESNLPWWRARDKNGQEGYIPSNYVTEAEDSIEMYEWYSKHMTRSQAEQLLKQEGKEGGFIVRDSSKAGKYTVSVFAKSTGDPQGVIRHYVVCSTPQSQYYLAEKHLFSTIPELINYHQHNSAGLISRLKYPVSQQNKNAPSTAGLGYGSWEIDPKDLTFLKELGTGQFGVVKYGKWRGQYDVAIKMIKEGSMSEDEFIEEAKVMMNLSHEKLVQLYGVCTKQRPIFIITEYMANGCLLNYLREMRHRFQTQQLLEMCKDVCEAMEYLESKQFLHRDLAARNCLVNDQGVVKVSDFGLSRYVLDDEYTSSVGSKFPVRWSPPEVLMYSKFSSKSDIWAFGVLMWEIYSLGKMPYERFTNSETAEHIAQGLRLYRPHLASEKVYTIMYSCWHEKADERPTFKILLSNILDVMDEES

pIC50 (BTK)	pIC50 (ITK)	Structure (SMILES)
8.66	8.64	C=CC(=O)N1CC[C@H](Nc2nc(CN3CCOCC3)cc(Nc3ncc(C)s3)n2)C1 [Example 24, (S)-1-(3-((4-((5-methylthiazol-2-yl)amino)-6-(morpholinomethyl)pyrimidin-2-yl)amino)pyrrolidin-1-yl) prop-2-en-1-one]
8.82	8.72	C=CC(=O)N1CCCC(Nc2nc(CN3CCOCC3)cc(Nc3ncc(C)s3)n2)C1 (stereo not shown) [Example 17, 1-(3-((4-((5-methylthiazol-2-yl)amino)-6-(morpholinomethyl)pyrimidin-2-yl)amino)piperidin-1-yl) prop-2-en-1-one]
8.80	8.59	C=CC(=O)N1CCC[C@H](Nc2cc(C#N)cc(Nc3ncc(C)s3)n2)C1 [Example 38]
8.66	7.75	C=CC(=O)N1CCC[C@H](N(C)c2cc(CN3CCOCC3)cc(Nc3ncc(C)s3)n2)C1 [Example 26, (S)-1-(3-(methyl (6-((5-methylthiazol-2-yl)amino)-4-(morpholinomethyl)pyridin-2-yl)amino)piperidin-1-yl) prop-2-en-1-one]
7.99	8.04	C=CC(=O)N1CCC(Nc2cc(CN3CCOCC3)cc(Nc3ncc(C)s3)n2)CC1 [Example 3, 1-(4-((6-((5-methylthiazol-2-yl)amino)-4-(morpholinomethyl)pyridin-2-yl)amino)piperidin-1-yl) prop-2-en-1-one]
